{"source": "patent US6730700B2", "about": "“3,4,5,-trisubstituted aryl nitrone compounds and pharmaceutical compositions containing the same” (Renovis, Inc., priority 1998, dated 2004)", "key": {"[1]": {"target": "T1, COX-2 derived from sheep placenta (Ovis aries, UniProt P79208)", "T1 sequence (P79208 17-603)": "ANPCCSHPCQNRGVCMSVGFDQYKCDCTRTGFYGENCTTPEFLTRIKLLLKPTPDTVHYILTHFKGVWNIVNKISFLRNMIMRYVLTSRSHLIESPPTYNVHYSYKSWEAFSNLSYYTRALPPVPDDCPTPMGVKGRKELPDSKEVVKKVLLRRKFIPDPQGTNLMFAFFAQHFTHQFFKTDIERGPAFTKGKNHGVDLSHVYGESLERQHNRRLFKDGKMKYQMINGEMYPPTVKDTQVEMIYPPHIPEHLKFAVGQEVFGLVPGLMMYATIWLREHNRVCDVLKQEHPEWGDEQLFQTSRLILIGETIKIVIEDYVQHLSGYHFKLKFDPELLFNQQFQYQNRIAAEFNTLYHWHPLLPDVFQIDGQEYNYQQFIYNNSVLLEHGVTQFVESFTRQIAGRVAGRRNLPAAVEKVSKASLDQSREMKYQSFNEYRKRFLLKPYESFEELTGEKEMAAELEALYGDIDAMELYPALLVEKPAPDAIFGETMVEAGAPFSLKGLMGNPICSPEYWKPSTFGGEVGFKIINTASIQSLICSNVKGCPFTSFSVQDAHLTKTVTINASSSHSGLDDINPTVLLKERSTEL", "test": "Inhibition of COX-2 (arachidonic acid incubation, PGE2 formation)", "conditions": "300 μM; PGE2 formation by spectrophotometric quantitation of malondialdehyde", "protocol": "(§1) The inhibition of COX-1 was measured by incubating arachidonic acid with COX-1 derived from ram seminal vesicles. The inhibition of COX-2 was measured by incubation of arachidonic acid with COX-2 derived from sheep placenta. […] In each assay, the formation of prostaglandin E2 (PGE2) was measured by spectrophotometric quantitation of malondialdehyde."}, "[2]": {"target": "T2, COX-1 derived from ram seminal vesicles (Ovis aries, UniProt P05979)", "T2 sequence (P05979 25-600)": "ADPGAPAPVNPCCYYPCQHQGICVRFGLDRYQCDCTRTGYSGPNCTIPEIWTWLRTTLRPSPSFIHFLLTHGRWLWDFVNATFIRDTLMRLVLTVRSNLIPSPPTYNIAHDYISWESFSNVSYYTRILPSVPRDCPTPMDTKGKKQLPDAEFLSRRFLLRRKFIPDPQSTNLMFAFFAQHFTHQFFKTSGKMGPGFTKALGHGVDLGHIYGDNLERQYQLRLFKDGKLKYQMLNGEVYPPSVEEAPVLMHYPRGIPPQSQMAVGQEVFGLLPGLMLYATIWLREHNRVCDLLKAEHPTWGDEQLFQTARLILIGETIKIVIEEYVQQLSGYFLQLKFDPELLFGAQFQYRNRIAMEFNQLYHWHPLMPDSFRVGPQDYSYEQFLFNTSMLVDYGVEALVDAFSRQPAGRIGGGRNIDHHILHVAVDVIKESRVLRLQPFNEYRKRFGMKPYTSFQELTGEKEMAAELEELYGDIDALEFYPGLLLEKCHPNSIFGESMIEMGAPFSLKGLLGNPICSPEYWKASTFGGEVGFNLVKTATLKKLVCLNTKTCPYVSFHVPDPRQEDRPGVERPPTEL", "test": "Inhibition of COX-1 (arachidonic acid incubation, PGE2 formation)", "conditions": "300 μM; PGE2 formation by spectrophotometric quantitation of malondialdehyde", "protocol": "as §1"}, "[3]": {"system": "adjuvant-induced footpad edema in rats", "test": "Adjuvant assay (adjuvant-induced footpad edema)", "assay_type": "in vivo, rat", "conditions": "Male Lewis rats, 3 mg/kg po, dosing day 14 to day 21 post-adjuvant", "description": "See, for example, […], “Rat Adjuvant Arthritis A Model of Chronic Inflammation,” Pharmocoloigal Methods in the Control of Inflammation, 363-380 (1989) and references cited therein In this assay, Male Lewis rats weighing between 180-220 g were lightly anesthetized with an ip injection of 30 mg/kg of sodium pentobarbital (50 mg/mL). Desiccated Mycobacterium butyrium (Difco, 20 mg/mL) suspended in mineral oil was injected (50 μL) at both sides of the base of the tail under the skin A line was tattooed on both rear paws at 5 mm above the angle of the ankle The paw volumes, under the line, were measured by volume displacement using a plethysmometer (Ugo Basile) at the day of adjuvant injection (day 0) and on day 14 On day 14, animals with paw volumes equal to the mean of paw volumes ±SD were randomized into treatment groups. Rats which fell outside ±1 SD were not used in the experiment."}}, "data": [{"smiles": "CC(=O)Oc1c(C(C)(C)C)cc(/C=[N+](\\[O-])C(C)(C)C)cc1C(C)(C)C", "note": "[Example 1, α-(4-Acetoxy-3,5-di-tert-butylphenyl)-N-tert-butylnitrone]", "values": [{"measurement": "inhibition of COX-2", "setting": "[1]", "result": "did not significantly affect"}, {"measurement": "inhibition of COX-1", "setting": "[2]", "result": "did not significantly affect"}]}, {"smiles": "COc1ccc2c(c1)c(CC(=O)O)c(C)n2C(=O)c1ccc(Cl)cc1", "note": "[indomethacin]", "values": [{"measurement": "paw volume as compared to vehicle controls", "setting": "[3]", "result": "significantly reduced"}]}]}
